From patent US11285156B2, “Substituted piperazines as KRAS G12C inhibitors” (Amgen Inc., priority 2018, dated 2022)
Where two headings read alike, the source gives them in different places.

How the values were obtained:
[1] = system: Phosphorylation of ERK1/2 in MIA PaCa-2 cells; assay: Phospho-ERK1/2 MSD assay in MIA PaCa-2 cells; type: cell-based; conditions: read-out: p-ERK IC50 (2 h, MiaPaCa-2; μM), 2 h compound treatment, MIA PaCa-2 cells, EGF stimulated
Method: (§1) Phospho-ERK1/2 MSD Assay:
(§2) Sixteen hours prior to compound treatment, MIA PaCa-2 or A549 cells were seeded in 96-well cell culture plates at a density of 25,000 cells/well and incubated at 37° C., 5% CO2. A compound dose-response titration was diluted in growth media, added to appropriate wells of a cell culture plate, and then incubated at 37° C., 5% CO2 for 2 or 4 hours (see Table 15). Following compound treatment, cells were stimulated with 10 ng/mL EGF (Roche 11376454001) for 10 min, washed with ice-cold Dulbecco's phosphate-buffered saline, no Ca2+ or Mg2+ (ThermoFisher Scientific 14190144), and then lysed in RIPA buffer (50 mM Tris-HCl pH 7.5, 1% Igepal, 0.5% sodium deoxycholate, 150 mM NaCl. and 0.5% sodium dodecyl sulfate) containing protease inhibitors (Roche 4693132001) and phosphatase inhibitors (Roche 4906837001). Phosphorylation of ERK1/2 in compound-treated lysates was assayed using Phospho-ERK1/2 Whole Cell Lysate kits (Meso Scale Discovery K151DWD) according to the manufacturer's protocol.

[2] = system: Phosphorylation of ERK1/2 in A549 cells; assay: Phospho-ERK1/2 MSD assay in A549 cells; type: cell-based; conditions: read-out: p-ERK IC50 (2 h, A549; μM), 2 h compound treatment, A549 cells, EGF stimulated
Method: as §1
as §2, with “MIA PaCa-2 (ATCC® CRL-1420™) and A549 (ATCC® CCL-185™) cells were cultured in RPMI 1640 Medium (ThermoFisher Scientific 11875093) containing 10% fetal bovine serum (ThermoFisher Scientific 16000044) and 1× penicillin-streptomycin-glutamine (ThermoFisher Scientific 10378016). Sixteen” for “Sixteen”

Structure (SMILES) | IC50 [1] [µM] | IC50 [2] [µM] | IC50 ([2]; Homo sapiens, A549, 2 h) [µM] | IC50 ([1]; Homo sapiens, MIA PaCa-2, 2 h) [µM]
C=CC(=O)N1C[C@H](C)N(c2nc(=O)n(-c3c(C)ccnc3C(C)C)c3nc(-c4c(F)cccc4[S+](C)[O-])c(Cl)cc23)C[C@H]1C (atropisomer, axis not shown; (M)) [Example 211-2, (M)-4-((2S,5R)-4-Acryloyl-2,5-dimethylpiperazin-1-yl)-6-chloro-7-(2-fluoro-6-(methylsulfinyl)phenyl)-1-(2-isopropyl-4-methylpyridin-3-yl)pyrido[2,3-d]pyrimidin-2(1H)-one] | 0.106 | > 7.5 |  | 
C=CC(=O)N1C[C@H](C)N(c2nc(=O)n(-c3c(C)ccnc3C(C)C)c3nc(-c4c(F)cccc4[S+](C)[O-])c(Cl)cc23)C[C@H]1C (atropisomer, axis not shown; (M)) [Example 211-3, (M)-4-((2S,5R)-4-Acryloyl-2,5-dimethylpiperazin-1-yl)-6-chloro-7-(2-fluoro-6-(methylsulfinyl)phenyl)-1-(2-isopropyl-4-methylpyridin-3-yl)pyrido[2,3-d]pyrimidin-2(1H)-one] | 0.253 | > 7.5 |  | 
C=CC(=O)N1C[C@H](C)N(c2nc(=O)n(-c3c(C)ccnc3C(C)C)c3nc(-c4ccccc4[S+](C)[O-])c(Cl)cc23)C[C@H]1C (atropisomer, axis not shown; (M)) [Example 212-1, (M)-4-((2S,5R)-4-Acryloyl-2,5-dimethylpiperazin-1-yl)-6-chloro-1-(2-isopropyl-4-methylpyridin-3-yl)-7-(2-(methylsulfinyl)phenyl)pyrido[2,3-d]pyrimidin-2(1H)-one] | 0.705 |  | > 7.5 | 
C=CC(=O)N1C[C@H](C)N(c2nc(=O)n(-c3c(C)ccnc3C(C)C)c3nc(-c4ccccc4[S+](C)[O-])c(Cl)cc23)C[C@H]1C (atropisomer, axis not shown; (M)) [Example 212-2, (M)-4-((2S,5R)-4-Acryloyl-2,5-dimethylpiperazin-1-yl)-6-chloro-1-(2-isopropyl-4-methylpyridin-3-yl)-7-(2-(methylsulfinyl)phenyl)pyrido[2,3-d]pyrimidin-2(1H)-one] | 0.237 | > 7.5 |  | 
C=CC(=O)N1C[C@H](C)N(c2nc(=O)n(-c3c(C)ccnc3C(C)C)c3nc(-c4c(F)cccc4S(C)(=O)=O)c(Cl)cc23)C[C@H]1C (atropisomer, axis not shown; (M)) [Example 214, (M)-4-((2S,5R)-4-Acryloyl-2,5-dimethylpiperazin-1-yl)-6-chloro-7-(2-fluoro-6-(methylsulfonyl)phenyl)-1-(2-isopropyl-4-methylpyridin-3-yl)pyrido[2,3-d]pyrimidin-2(1H)-one] | 0.025 | > 7.5 |  | 
C=CC(=O)N1C[C@H](C)N(c2nc(=O)n(-c3c(C)ccnc3C(C)C)c3nc(-c4c(F)cccc4S(C)(=O)=O)c(Cl)cc23)C[C@H]1C (atropisomer, axis not shown; (M)) [Example 214-1, (M)-4-((2S,5R)-4-Acryloyl-2,5-dimethylpiperazin-1-yl)-6-chloro-7-(2-fluoro-6-(methylsulfonyl)phenyl)-1-(2-isopropyl-4-methylpyridin-3-yl)pyrido[2,3-d]pyrimidin-2(1H)-one] |  |  | > 7.5 | 0.03
C=CC(=O)N1C[C@H](C)N(c2nc(=O)n(-c3c(C)ccnc3C(C)C)c3nc(-c4cc(S(C)(=O)=O)ccc4F)c(Cl)cc23)C[C@H]1C (atropisomer, axis not shown; (M)) [Example 223, (M)-4-((2S,5R)-4-Acryloyl-2,5-dimethylpiperazin-1-yl)-6-chloro-7-(2-fluoro-5-(methylsulfonyl)phenyl)-1-(2-isopropyl-4-methylpyridin-3-yl)pyrido[2,3-d]pyrimidin-2(1H)-one] |  |  | > 7.5 | 0.659
C=CC(=O)N1C[C@H](C)N(c2nc(=O)n(-c3c(C)cncc3C(C)C)c3nc(-c4ccccc4F)c(Cl)cc23)C[C@H]1C (single isomer, unassigned) [Example 100-8] |  |  | > 7.5 | 0.042
C=CC(=O)N1C[C@H](C)N(c2nc(=O)n(-c3c(C(C)C)ccnc3C(C)C)c3nc(-c4ccccc4Cl)c(Cl)cc23)C[C@H]1C (single isomer, unassigned) [Example 124-6] |  |  | > 7.5 | 0.062
C=CC(=O)N1C[C@H](C)N(c2nc(=O)n(-c3c(C(C)C)ccnc3C(C)C)c3nc(-c4ccccc4C)c(Cl)cc23)C[C@H]1C (single isomer, unassigned) [Example 125-2] | 0.038 | > 7.5 |  | 
C=CC(=O)N1C[C@H](C)N(c2nc(=O)n(-c3c(C(C)C)ccnc3C(C)C)c3nc(-c4ccccc4C(F)(F)F)c(Cl)cc23)C[C@H]1C (single isomer, unassigned) [Example 125-3] | 0.041 | > 7.5 |  | 
C=CC(=O)N1C[C@H](C)N(c2nc(=O)n(-c3c(C(C)C)ccnc3C(C)C)c3nc(-c4c(O)cccc4F)c(Cl)cc23)C[C@H]1C (single isomer, unassigned) [Example 125-4] | 0.023 | > 7.5 |  | 
C=CC(=O)N1C[C@H](C)N(c2nc(=O)n(-c3c(C(C)C)ccnc3C(C)C)c3nc(-c4ccccc4Cl)c(Cl)cc23)C[C@H]1C (single isomer, unassigned) [Example 125-6] | 0.105 | > 7.5 |  | 
C=CC(=O)N1C[C@H](C)N(c2nc(=O)n(-c3c(C(C)C)ccnc3C(C)C)c3nc(-c4ccccc4)c(Cl)cc23)C[C@H]1C (single isomer, unassigned) [Example 125-7] | 0.137 | > 7.5 |  | 
C=CC(=O)N1C[C@H](C)N(c2nc(=O)n(-c3c(C)cc(C)nc3C(C)C)c3nc(-c4ccccc4F)c(Cl)cc23)C[C@H]1C (single isomer, unassigned) [Example 165-1] |  |  | > 7.5 | 0.049
C=CC(=O)N1C[C@H](C)N(c2nc(=O)n(-c3c(C)cc(C(=C)C)nc3C(C)C)c3nc(-c4ccccc4F)c(Cl)cc23)C[C@H]1C (single isomer, unassigned) [Example 173-1] |  |  | 5.97 | 0.229
C=CC(=O)N1C[C@H](C)N(c2nc(=O)n(-c3c(C)cc(N4CCC4)nc3C(C)C)c3nc(-c4ccccc4F)c(Cl)cc23)C[C@H]1C (single isomer, unassigned) [Example 175-2] |  |  | > 7.5 | 0.171
C=CC(=O)N1C[C@H](C)N(c2nc(=O)n(-c3c(C)cc(C(C)C)nc3C(C)C)c3nc(-c4ccccc4F)c(Cl)cc23)C[C@H]1C (single isomer, unassigned) [Example 176-1] |  |  | 5.75 | 0.347
C=CC(=O)N1C[C@H](C)N(c2nc(=O)n(-c3c(C)cc(C=C)nc3C(C)C)c3nc(-c4ccccc4F)c(Cl)cc23)C[C@H]1C (single isomer, unassigned) [Example 177-1] |  |  | 3.34 | 0.063
C=CC(=O)N1[C@H](C)CN(c2nc(=O)n(-c3c(C(C)C)cnnc3C(C)C)c3nc(-c4ccccc4F)c(Cl)cc23)C[C@@H]1C (single isomer, unassigned) [Example 206-1, 4-(cis-4-Acryloyl-3,5-dimethylpiperazin-1-yl)-6-chloro-1-(3,5-diisopropylpyridazin-4-yl)-7-(2-fluorophenyl)pyrido[2,3-d]pyrimidin-2(1H)-one] |  |  | > 7.5 | 0.1
C=CC(=O)N1C[C@H](C)N(c2nc(=O)n(-c3c(Cl)ccnc3C(C)C)c3nc(-c4ccccc4F)c(Cl)cc23)C[C@H]1C [Example 55-50, 6-Chloro-1-(4-chloro-2-isopropyl-3-pyridyl)-4-[(2S,5R)-2,5-dimethyl-4-prop-2-enoyl-piperazin-1-yl]-7-(2-fluorophenyl)pyrido[2,3-d]pyrimidin-2-one] |  |  | > 7.5 | 0.023
C=CC(=O)N1C[C@H](C)N(c2nc(=O)n(-c3c(N(C)C)ccnc3C(C)C)c3nc(-c4c(N)cccc4F)c(Cl)cc23)C[C@H]1C [Example 55-54, 7-(2-Amino-6-fluoro-phenyl)-6-chloro-1-[4-(dimethylamino)-2-isopropyl-3-pyridyl]-4-[(2S,5R)-2,5-dimethyl-4-prop-2-enoyl-piperazin-1-yl]pyrido[2,3-d]pyrimidin-2-one] | 0.016 |  | > 7.5 | 
